Drawing on patent US8802661B2, “C-28 amides of modified C-3 betulinic acid derivatives as HIV maturation inhibitors” (priority 2010, dated 2014), this text covers EC50 for 16 compounds.

Where only a bound is given, the exact number is not on record here.

One assay has as its system recombinant NL4-3 virus (Renilla luciferase in nef, Gag P373S). The assay can be described thus: HIV Cell Culture Assay (luciferase reporter virus in MT-2 cells). The assay is classed as cell-based. The settings on record: NL43. The method in brief: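 Luciferase signal is the read-out: after 4-5 days of infection in the presence of serially diluted compound, MT-2 cells are lysed with a premix of lysis buffer, luciferase reagent and Stop & Glo substrate, and luminescence is read immediately.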
In the case of `CC(C)[C@@H]1CC[C@]2(C(=O)NCC[N+](C)(C)[O-])CC[C@]3(C)[C@H](CC[C@@H]4[C@@]5(C)CC=C(c6ccc(C(=O)O)cc6)C(C)(C)[C@@H]5CC[C@]43C)[C@@H]12` [Example 97, 2-((1S,3aS,5aR,5bR,7aR,11aS,11bR,13aR,13bR)-9-(4-carboxyphenyl)-1-isopropyl-5a,5b,8,8,11a-pentamethyl-2,3,3a,4,5,5a,5b,6,7,7a,8,11,11a,11b,12,13,13a,13b-octadecahydro-1H-cyclopenta[a]chrysene-3a-carboxamido)-N,N-dimethylethanamine oxide], the EC50 stood at 2.6 nM. The same measure, in the same setting: the same measure for `C=C(C)[C@@H]1CC[C@]2(C(=O)Nc3ccc(OC)cc3)CC[C@]3(C)[C@H](CC[C@@H]4[C@@]5(C)CC=C(c6ccc(C(=O)O)cc6)C(C)(C)[C@@H]5CC[C@]43C)[C@@H]12` [Example 14, 4-((1R,3aS,5aR,5bR,7aR,11aS,11bR,13aR,13bR)-3a-(4-methoxyphenylcarbamoyl)-5a,5b,8,8,11a-pentamethyl-1-(prop-1-en-2-yl)-2,3,3a,4,5,5a,5b,6,7,7a,8,11,11a,11b,12,13,13a,13b-octadecahydro-1H-cyclopenta[a]chrysen-9-yl)benzoic acid]: 110 nM. The same measure, in the same setting: the result for `C=C(C)[C@@H]1CC[C@]2(C(=O)NCc3ccc(Cl)cc3)CC[C@]3(C)[C@H](CC[C@@H]4[C@@]5(C)CC=C(c6ccc(C(=O)O)cc6)C(C)(C)[C@@H]5CC[C@]43C)[C@@H]12` [Example 60, 4-((1R,3aS,5aR,5bR,7aR,11aS,11bR,13aR,13bR)-3a-(4-chlorobenzylcarbamoyl)-5a,5b,8,8,11a-pentamethyl-1-(prop-1-en-2-yl)-2,3,3a,4,5,5a,5b,6,7,7a,8,11,11a,11b,12,13,13a,13b-octadecahydro-1H-cyclopenta[a]chrysen-9-yl)benzoic acid] reads 48 nM.

Regarding `C=C(C)[C@@H]1CC[C@]2(C(=O)NCCN(C(C)C)C(C)C)CC[C@]3(C)[C@H](CC[C@@H]4[C@@]5(C)CC=C(c6ccc(C(=O)O)cc6)C(C)(C)[C@@H]5CC[C@]43C)[C@@H]12` [Example 67, 4-((1R,3aS,5aR,5bR,7aR,11aS,11bR,13aR,13bR)-3a-(2-(diisopropylamino)ethylcarbamoyl)-5a,5b,8,8,11a-pentamethyl-1-(prop-1-en-2-yl)-2,3,3a,4,5,5a,5b,6,7,7a,8,11,11a,11b,12,13,13a,13b-octadecahydro-1H-cyclopenta[a]chrysen-9-yl)benzoic acid], the EC50 was 3.8 nM.

Take `C=C(C)[C@@H]1CC[C@]2(C(=O)N3CCCC(C(=O)N(CC)CC)C3)CC[C@]3(C)[C@H](CC[C@@H]4[C@@]5(C)CC=C(c6ccc(C(=O)O)cc6)C(C)(C)[C@@H]5CC[C@]43C)[C@@H]12` (stereo partly drawn) [Example 11, 4-((1R,3aS,5aR,5bR,7aR,11aS,11bR,13aR,13bR)-3a-(3-(diethylcarbamoyl)piperidine-1-carbonyl)-5a,5b,8,8,11a-pentamethyl-1-(prop-1-en-2-yl)-2,3,3a,4,5,5a,5b,6,7,7a,8,11,11a,11b,12,13,13a,13b-octadecahydro-1H-cyclopenta[a]chrysen-9-yl)benzoic acid]: the EC50 was found to be 61 nM.

Staying with this assay, now noted: NL43, read-out: EC50 Group.
For `C=C(C)[C@@H]1CC[C@]2(C(=O)NS(=O)(=O)C3CC3)CC[C@]3(C)[C@H](CC[C@@H]4[C@@]5(C)CC=C(c6ccc(C(=O)O)cc6)C(C)(C)[C@@H]5CC[C@]43C)[C@@H]12` [Example 6, 4-((1R,3aS,5aR,5bR,7aR,11aS,11bR,13aR,13bR)-3a-(cyclopropylsulfonylcarbamoyl)-5a,5b,8,8,11a-pentamethyl-1-(prop-1-en-2-yl)-2,3,3a,4,5,5a,5b,6,7,7a,8,11,11a,11b,12,13,13a,13b-octadecahydro-1H-cyclopenta[a]chrysen-9-yl)benzoic acid], the EC50 was under 100 nM. Same read-out and setting: the result for `C=C(C)[C@@H]1CC[C@]2(C(=O)NCCN3CCNC(=O)C3)CC[C@]3(C)[C@H](CC[C@@H]4[C@@]5(C)CC=C(c6ccc(C(=O)O)cc6)C(C)(C)[C@@H]5CC[C@]43C)[C@@H]12` [Example 108, 4-((1R,3aS,5aR,5bR,7aR,11aS,11bR,13aR,13bR)-5a,5b,8,8,11a-pentamethyl-3a-(2-(3-oxopiperazin-1-yl)ethylcarbamoyl)-1-(prop-1-en-2-yl)-2,3,3a,4,5,5a,5b,6,7,7a,8,11,11a,11b,12,13,13a,13b-octadecahydro-1H-cyclopenta[a]chrysen-9-yl)benzoic acid] reads under 100 nM. The same measure, in the same setting: the same measure for `C=C(C)[C@@H]1CC[C@]2(C(=O)NCCc3ccccn3)CC[C@]3(C)[C@H](CC[C@@H]4[C@@]5(C)CC=C(c6ccc(C(=O)OC)cc6)C(C)(C)[C@@H]5CC[C@]43C)[C@@H]12` [Example 20, methyl 4-((1R,3aS,5aR,5bR,7aR,11aS,11bR,13aR,13bR)-5a,5b,8,8,11a-pentamethyl-1-(prop-1-en-2-yl)-3a-(2-(pyridin-2-yl)ethylcarbamoyl)-2,3,3a,4,5,5a,5b,6,7,7a,8,11,11a,11b,12,13,13a,13b-octadecahydro-1H-cyclopenta[a]chrysen-9-yl)benzoate]: over 100 nM; for `C=C(C)[C@@H]1CC[C@]2(C(=O)NCCNCCS(=O)(=O)O)CC[C@]3(C)[C@H](CC[C@@H]4[C@@]5(C)CC=C(c6ccc(C(=O)O)cc6)C(C)(C)[C@@H]5CC[C@]43C)[C@@H]12` [Example 92, 4-((1R,3aS,5aR,5bR,7aR,11aS,11bR,13aR,13bR)-5a,5b,8,8,11a-pentamethyl-1-(prop-1-en-2-yl)-3a-(2-(2-sulfoethylamino)ethylcarbamoyl)-2,3,3a,4,5,5a,5b,6,7,7a,8,11,11a,11b,12,13,13a,13b-octadecahydro-1H-cyclopenta[a]chrysen-9-yl)benzoic acid]: under 100 nM; for `C=C(C)[C@@H]1CC[C@]2(C(=O)NCc3ccncc3)CC[C@]3(C)[C@H](CC[C@@H]4[C@@]5(C)CC=C(c6ccc(C(=O)O)cc6)C(C)(C)[C@@H]5CC[C@]43C)[C@@H]12` [Example 28, 4-((1R,3aS,5aR,5bR,7aR,11aS,11bR,13aR,13bR)-5a,5b,8,8,11a-pentamethyl-1-(prop-1-en-2-yl)-3a-(pyridin-4-ylmethylcarbamoyl)-2,3,3a,4,5,5a,5b,6,7,7a,8,11,11a,11b,12,13,13a,13b-octadecahydro-1H-cyclopenta[a]chrysen-9-yl)benzoic acid]: under 100 nM. Same read-out and setting: the result for `C=C(C)[C@@H]1CC[C@]2(C(=O)N[C@@H](Cc3ccccc3)C(=O)O)CC[C@]3(C)[C@H](CC[C@@H]4[C@@]5(C)CC=C(c6ccc(C(=O)O)cc6)C(C)(C)[C@@H]5CC[C@]43C)[C@@H]12` [Example 58, 4-((1R,3aS,5aR,5bR,7aR,11aS,11bR,13aR,13bR)-3a-((S)-1-carboxy-2-phenylethylcarbamoyl)-5a,5b,8,8,11a-pentamethyl-1-(prop-1-en-2-yl)-2,3,3a,4,5,5a,5b,6,7,7a,8,11,11a,11b,12,13,13a,13b-octadecahydro-1H-cyclopenta[a]chrysen-9-yl)benzoic acid] reads under 100 nM; that for `C=C(C)[C@@H]1CC[C@]2(C(=O)N3CCCC3C(=O)O)CC[C@]3(C)[C@H](CC[C@@H]4[C@@]5(C)CC=C(c6ccc(C(=O)O)cc6)C(C)(C)[C@@H]5CC[C@]43C)[C@@H]12` (stereo partly drawn) [Example 128, 1-((1R,3aS,5aR,5bR,7aR,11aS,11bR,13aR,13bR)-9-(4-carboxyphenyl)-5a,5b,8,8,11a-pentamethyl-1-(prop-1-en-2-yl)-2,3,3a,4,5,5a,5b,6,7,7a,8,11,11a,11b,12,13,13a,13b-octadecahydro-1H-cyclopenta[a]chrysene-3a-carbonyl)pyrrolidine-2-carboxylic acid], under 100 nM.

As to `C=C(C)[C@@H]1CC[C@]2(C(=O)NCCN3CCN(C)CC3)CC[C@]3(C)[C@H](CC[C@@H]4[C@@]5(C)CC=C(c6ccc(C(=O)O)cc6)C(C)(C)[C@@H]5CC[C@]43C)[C@@H]12` [Example 36, 4-((1R,3aS,5aR,5bR,7aR,11aS,11bR,13aR,13bR)-5a,5b,8,8,11a-pentamethyl-3a-(2-(4-methylpiperazin-1-yl)ethylcarbamoyl)-1-(prop-1-en-2-yl)-2,3,3a,4,5,5a,5b,6,7,7a,8,11,11a,11b,12,13,13a,13b-octadecahydro-1H-cyclopenta[a]chrysen-9-yl)benzoic acid], the EC50 is under 100 nM. Same read-out and setting: the result for `C=C(C)[C@@H]1CC[C@]2(C(=O)NCCN(CC)CCO)CC[C@]3(C)[C@H](CC[C@@H]4[C@@]5(C)CC=C(c6ccc(C(=O)O)cc6)C(C)(C)[C@@H]5CC[C@]43C)[C@@H]12` [Example 72, 4-((1R,3aS,5aR,5bR,7aR,11aS,11bR,13aR,13bR)-3a-(2-(ethyl(2-hydroxyethyl)amino)ethylcarbamoyl)-5a,5b,8,8,11a-pentamethyl-1-(prop-1-en-2-yl)-2,3,3a,4,5,5a,5b,6,7,7a,8,11,11a,11b,12,13,13a,13b-octadecahydro-1H-cyclopenta[a]chrysen-9-yl)benzoic acid] reads under 100 nM; that for `C=C(C)[C@@H]1CC[C@]2(C(=O)NCCCN3CCS(=O)(=O)CC3)CC[C@]3(C)[C@H](CC[C@@H]4[C@@]5(C)CC=C(c6ccc(C(=O)O)c(F)c6)C(C)(C)[C@@H]5CC[C@]43C)[C@@H]12` [Example 105, 4-((1R,3aS,5aR,5bR,7aR,11aS,11bR,13aR,13bR)-3a-((3-(1,1-dioxido-4-thiomorpholinyl)propyl)carbamoyl)-1-isopropenyl-5a,5b,8,8,11a-pentamethyl-2,3,3a,4,5,5a,5b,6,7,7a,8,11,11a,11b,12,13,13a,13b-octadecahydro-1H-cyclopenta[a]chrysen-9-yl)-2-fluorobenzoic acid], under 100 nM. For `C=C(C)[C@@H]1CC[C@]2(C(=O)NCCN3CCCCC3)CC[C@]3(C)[C@H](CC[C@@H]4[C@@]5(C)CC=C(c6ccc(C(=O)O)cc6)C(C)(C)[C@@H]5CC[C@]43C)[C@@H]12` [Example 33, 4-((1R,3aS,5aR,5bR,7aR,11aS,11bR,13aR,13bR)-5a,5b,8,8,11a-pentamethyl-3a-(2-(piperidin-1-yl)ethylcarbamoyl)-1-(prop-1-en-2-yl)-2,3,3a,4,5,5a,5b,6,7,7a,8,11,11a,11b,12,13,13a,13b-octadecahydro-1H-cyclopenta[a]chrysen-9-yl)benzoic acid], the EC50 was under 100 nM.

The term EC50 denotes the concentration that produces a half-maximal response.
